We go through five compounds from paper PMC12566971, “Polyprenylated Acylphloroglucinols from Hypericum rochelii and Hypericum olympicum—Cytotoxic Effects on Non-Tumorigenic Cell Lines and Antibacterial Potential” (Pharmaceuticals, 2025).

The term IC50 denotes the concentration that inhibits the measured activity by half.

For test [1], the system named is Enterococcus faecalis. In words: MIC and MBC evaluation (broth microdilution, agar plate assay). It counts as cell-based. On the procedure: (§1) The MIC and MBC assessment on the pathogenic bacteria and the candidate probiotic lactic acid bacteria was carried out by the broth microdilution assay (BMD) and the agar plate assay, respectively, as described in [4]. The metabolic (dehydrogenase) activity of the lactic acid bacteria was assessed as described in [4].
(§2) P. aeruginosa PAO1 ATCC 15692 was purchased from the American Type Cell Culture Collection (ATCC, Manassas, VA, USA). S. mutans DSM 20523 was bought from the German Collection of Microorganisms and Cell Cultures (DSMZ GmbH, Braunschweig, Germany). All other bacteria and strains were purchased as described in [4].
Background: Dilution methods test growth across graded concentrations, often in twofold steps.

Test [2] has as its system Streptococcus pyogenes. Described as above. The test is classed as cell-based. On the procedure:
as §1, §2

The subject of test [3] is Streptococcus mutans. The description is as above. It counts as cell-based. On the procedure:
as §1, §2

Test [4] has as its system panel of cancer cell lines. Set-up: method as in PMID 39454890. Particulars: ref [48]; read-out: IC50 against a panel of cancer cell lines; cited from earlier work.
The test system of test [5] is HT-22 and SH-SY5Y cells. Particulars: concentration where viability was restored to about 75%, ref [103]; read-out: Effective concentration 50 (EC50), neuroprotection; cited from earlier work.
Test [6] concerns breast cancer cell line. Details: method as in PMID 26865836. Conditions: 24 h, ref [93]; cited from earlier work.
The mark [7] stands for this setting: bactericidal if ≤ 4, bacteriostatic if > 4.

Take Penicillin [reference compound]: the “MBC, Enterococcus faecalis” value in test [1] came out at 20 µg/mL. Moreover, the “MBC/MIC ratio, E. faecalis” value in test [1] (setting [7]) was determined as 8. The “MBC, Streptococcus pyogenes” value in test [2] is listed as 0.25 µg/mL. Moreover, in test [2] (setting [7]), the “MBC/MIC ratio, S. pyogenes” value came to 3. In addition, in test [3], the “MBC for S. mutans” value is 2 µg/mL and the “MIC for S. mutans” value came to 0.03 µg/mL. In addition, the “MBC/MIC ratio, Streptococcus mutans” value in test [3] (setting [7]) was determined as 66.
In the case of `O=c1c(-c2c(O)cc(O)c3c(=O)cc(-c4ccc(O)cc4)oc23)c(-c2ccc(O)cc2)oc2cc(O)cc(O)c12` [I3-II8-biapigenin], the IC50 in test [4] was 107 to 198 µM.
On to Cerastioside A, for which the IC50 in test [4] is 107 to 198 µM.
For `c1cc2c(cc1[C@H]1OC[C@H]3[C@@H]1CO[C@@H]3c1ccc3c(c1)OCO3)OCO2` [sesamine], the EC50 in test [5] was 2.85 µM.
For the compound `N.N.[Cl][Pt][Cl]` [cisplatin], in test [6], the “IC50 for a breast cancer cell line” value is 20 µg/mL.
